Data published in patent publication US10160747B2, “Compounds and methods for kinase modulation, and indications therefor” (Plexxikon Inc., priority 2016, dated 2018).

What was measured:
[1] = molecular target: T1, FLT3-ITD (Homo sapiens, UniProt P36888); assay: FLT3-ITD recombinant enzyme kinase assay (AlphaScreen); type: biochemical; settings: 8 pt; read-out: FLT3_ITD 8 pt: IC50
T1 sequence (P36888 1-993): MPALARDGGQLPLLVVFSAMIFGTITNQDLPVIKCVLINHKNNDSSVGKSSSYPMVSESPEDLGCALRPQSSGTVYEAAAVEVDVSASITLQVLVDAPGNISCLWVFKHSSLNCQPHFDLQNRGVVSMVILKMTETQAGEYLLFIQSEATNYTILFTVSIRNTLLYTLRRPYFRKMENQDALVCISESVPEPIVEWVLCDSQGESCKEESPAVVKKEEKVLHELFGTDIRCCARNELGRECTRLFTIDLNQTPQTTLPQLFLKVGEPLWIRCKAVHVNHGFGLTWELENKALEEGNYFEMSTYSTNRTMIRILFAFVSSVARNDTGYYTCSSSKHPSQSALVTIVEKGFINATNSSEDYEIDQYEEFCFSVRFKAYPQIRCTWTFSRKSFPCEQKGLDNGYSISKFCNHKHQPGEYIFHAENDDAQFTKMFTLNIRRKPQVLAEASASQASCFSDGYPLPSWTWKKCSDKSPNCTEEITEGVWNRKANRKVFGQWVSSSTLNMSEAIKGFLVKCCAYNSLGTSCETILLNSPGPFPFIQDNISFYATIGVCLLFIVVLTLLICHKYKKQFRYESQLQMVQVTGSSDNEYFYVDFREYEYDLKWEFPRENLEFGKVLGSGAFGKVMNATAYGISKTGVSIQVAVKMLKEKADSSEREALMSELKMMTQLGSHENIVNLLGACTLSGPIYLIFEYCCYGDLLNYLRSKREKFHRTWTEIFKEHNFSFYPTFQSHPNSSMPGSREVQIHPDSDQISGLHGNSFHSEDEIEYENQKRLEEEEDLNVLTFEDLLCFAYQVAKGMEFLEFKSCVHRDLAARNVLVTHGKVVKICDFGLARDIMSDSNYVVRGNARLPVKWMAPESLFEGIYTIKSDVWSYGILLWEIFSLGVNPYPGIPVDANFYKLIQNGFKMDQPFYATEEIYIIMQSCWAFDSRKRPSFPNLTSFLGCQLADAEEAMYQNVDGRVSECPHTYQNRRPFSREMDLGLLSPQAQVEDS
Procedure, shortened: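 Recombinant kinase phosphorylates 30 nM biotinylated poly(Glu4-Tyr) peptide; ATP is 10 μM for FLT3-ITD and FLT3-D835Y, 100 μM for c-KIT. Phosphotyrosine detected by AlphaScreen (streptavidin donor, PY20 acceptor beads, 10 μg/mL), 580 nm signal after 680 nm excitation; IC50 from signal decrease.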

[2] = system: MOLM-14 F691L (endogenous FLT3 ITD and transfected FLT3 F691L); assay: MOLM-14 F691L cell proliferation assay (CellTiter-Glo); type: cell-based; settings: Homo sapiens, MOLM-14, 72 h; 3 d growth, GMean
Procedure, shortened: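 MOLM-14 cells (FLT3 ITD) carrying D835Y or F691L, 1×10^4 cells/well, eight 1:3 dilutions from 1 μM final, 0.2% DMSO, 3 days at 37 °C, 5% CO2. Viability by CellTiter-Glo luminescence (ATP content); IC50 from concentration-response.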

IC50 [1] [µM] | IC50 [2] [µM] | SMILES
0.0001 to 10 | 0.0001 to 10 | COCCn1cc(Nc2ncc(-c3ccc(CC(=O)Nc4ccc(C(F)(F)F)nc4)cc3)cn2)cn1 [Compound P-0273, 2-[4-[2-[[1-(2-methoxyethyl)pyrazol-4-yl]amino]pyrimidin-5-yl]phenyl]-N-[6-(trifluoromethyl)-3-pyridyl]acetamide]
0.0001 to 10 | 0.0001 to 10 | CCn1cc(Nc2ncc(-c3ccc(CC(=O)Nc4ccc(C(F)(F)F)cn4)c(F)c3)cn2)cn1 [Compound P-0256, 2-[4-[2-[(1-ethylpyrazol-4-yl)amino]pyrimidin-5-yl]-2-fluoro-phenyl]-N-[5-(trifluoromethyl)-2-pyridyl]acetamide]
0.0001 to 10 | 0.0001 to 10 | COCCn1cc(Nc2ncc(-c3ccc(CC(=O)Nc4cc(C(F)(F)F)ccn4)c(F)c3)cn2)cn1 [Compound P-0270, 2-[2-fluoro-4-[2-[[1-(2-methoxyethyl)pyrazol-4-yl]amino]pyrimidin-5-yl]phenyl]-N-[4-(trifluoromethyl)-2-pyridyl]acetamide]
0.0001 to 10 | 0.0001 to 10 | COCCn1cc(Nc2ncc(-c3ccc(CC(=O)Nc4ccc(C(F)(F)F)cn4)c(F)c3)cn2)cn1 [Compound P-0269, 2-[2-fluoro-4-[2-[[1-(2-methoxyethyl)pyrazol-4-yl]amino]pyrimidin-5-yl]phenyl]-N-[5-(trifluoromethyl)-2-pyridyl]acetamide]
0.0001 to 10 | 0.0001 to 10 | CCn1cc(Nc2ncc(-c3ccc(CC(=O)Nc4ccc(C(F)(F)F)nc4)c(F)c3)cn2)cn1 [Compound P-0257, 2-[4-[2-[(1-ethylpyrazol-4-yl)amino]pyrimidin-5-yl]-2-fluoro-phenyl]-N-[6-(trifluoromethyl)-3-pyridyl]acetamide]
0.0001 to 10 | 0.0001 to 10 | COCCn1cc(Nc2ncc(-c3ccc(CC(=O)Nc4ccc(C(F)(F)F)cn4)cc3)cn2)cn1 [Compound P-0274, 2-[4-[2-[[1-(2-methoxyethyl)pyrazol-4-yl]amino]pyrimidin-5-yl]phenyl]-N-[5-(trifluoromethyl)-2-pyridyl]acetamide]
0.0001 to 10 | 0.0001 to 10 | CCn1cc(Nc2ncc(-c3ccc(CC(=O)Nc4cnc(C)c(C(F)(F)F)c4)cc3)cn2)cn1 [Compound P-0254, 2-[4-[2-[(1-ethylpyrazol-4-yl)amino]pyrimidin-5-yl]phenyl]-N-[6-methyl-5-(trifluoromethyl)-3-pyridyl]acetamide]
0.0001 to 10 | 0.0001 to 10 | COCCn1cc(Nc2ncc(-c3ccc(CC(=O)Nc4cnc(OC)c(C(F)(F)F)c4)cc3)cn2)cn1 [Compound P-0271, 2-[4-[2-[[1-(2-methoxyethyl)pyrazol-4-yl]amino]pyrimidin-5-yl]phenyl]-N-[6-methoxy-5-(trifluoromethyl)-3-pyridyl]acetamide]

More lines, now with the values behind:

SMILES | IC50 [1] [µM] | IC50 [2] [µM]
COc1ncc(NC(=O)Cc2ccc(-c3cnc4[nH]nc(Cl)c4c3)cc2)cc1C(F)(F)F [Compound P-0230, 2-[4-(3-chloro-1H-pyrazolo[3,4-b]pyridin-5-yl)phenyl]-N-[6-methoxy-5-(trifluoromethyl)-3-pyridyl]acetamide] | 0.0001 to 10 | 0.0001 to 10
CCOc1n[nH]c2ncc(-c3ccc(CC(=O)Nc4cnc(OC)c(C(F)(F)F)c4)cc3)cc12 [Compound P-0213, 2-(4-(3-ethoxy-1H-pyrazolo[3,4-b]pyridin-5-yl)phenyl)-N-(6-methoxy-5-(trifluoromethyl)pyridin-3-yl)acetamide] | 0.0001 to 10 | 0.0001 to 10
O=C(Cc1ccc(-c2cnc(Nc3cnn(C4CC4)c3)nc2)cc1F)Nc1cnc(Cl)c(C(F)(F)F)c1 [Compound P-0240, N-[6-chloro-5-(trifluoromethyl)-3-pyridyl]-2-[4-[2-[(1-cyclopropylpyrazol-4-yl)amino]pyrimidin-5-yl]-2-fluoro-phenyl]acetamide] | 0.0001 to 10 | 0.0001 to 10
COc1n[nH]c2ncc(-c3ccc(CC(=O)Nc4cnc(C)c(C(F)(F)F)c4)cc3)cc12 [Compound P-0218, 2-[4-(3-methoxy-1H-pyrazolo[3,4-b]pyridin-5-yl)phenyl]-N-[6-methyl-5-(trifluoromethyl)-3-pyridyl]acetamide] | 0.0001 to 10 | 0.0001 to 10
O=C(Cc1ccc(-c2cnc(Nc3cnn(C(F)F)c3)nc2)cc1)Nc1cc(C(F)(F)F)ccn1 [Compound P-0023, 2-[4-[2-[[1-(difluoromethyl)pyrazol-4-yl]amino]pyrimidin-5-yl]phenyl]-N-[4-(trifluoromethyl)-2-pyridyl]acetamide] | 0.0001 to 10 | 0.0001 to 10
Cc1nn(C)cc1Nc1ncc(-c2ccc(CC(=O)Nc3cnc(C)c(C(F)(F)F)c3)cc2)cn1 [Compound P-0228, 2-[4-[2-[(1,3-dimethylpyrazol-4-yl)amino]pyrimidin-5-yl]phenyl]-N-[6-methyl-5-(trifluoromethyl)-3-pyridyl]acetamide] | 0.0001 to 10 | 0.0001 to 10
Cc1ncc(NC(=O)Cc2ccc(-c3cnc(Nc4cnn(C)c4C)nc3)cc2)cc1C(F)(F)F [Compound P-0229, 2-[4-[2-[(1,5-dimethylpyrazol-4-yl)amino]pyrimidin-5-yl]phenyl]-N-[6-methyl-5-(trifluoromethyl)-3-pyridyl]acetamide] | 0.0001 to 10 | 0.0001 to 10
COc1ncc(NC(=O)Cc2ccc(-c3cnc4[nH]c(C#CC(C)(C)C)cc4c3)cc2)cc1C(F)(F)F [Compound P-0219, 2-[4-[2-(3,3-dimethylbut-1-ynyl)-1H-pyrrolo[2,3-b]pyridin-5-yl]phenyl]-N-[6-methoxy-5-(trifluoromethyl)-3-pyridyl]acetamide] | 0.0001 to 10 | 0.0001 to 10
COc1ncc(NC(=O)Cc2ccc(-c3cnc4[nH]c(C#CC(C)(C)O)cc4c3)cc2)cc1C(F)(F)F [Compound P-0214, 2-(4-(2-(3-hydroxy-3-methylbut-1-yn-1-yl)-1H-pyrrolo[2,3-b]pyridin-5-yl)phenyl)-N-(6-methoxy-5-(trifluoromethyl)pyridin-3-yl)acetamide] | 0.0001 to 10 | 0.0001 to 10
O=C(Cc1ccc(-c2cnc(Nc3cnn(C4CC4)c3)nc2)cc1F)Nc1ccc(C(F)(F)F)nc1 [Compound P-0242, 2-[4-[2-[(1-cyclopropylpyrazol-4-yl)amino]pyrimidin-5-yl]-2-fluoro-phenyl]-N-[6-(trifluoromethyl)-3-pyridyl]acetamide] | 0.0001 to 10 | 0.0001 to 10
COc1ncc(NC(=O)Cc2ccc(-c3cnc4[nH]nc(OC)c4c3)cc2)cc1C(F)(F)F [Compound P-0212, 2-[4-(3-methoxy-1H-pyrazolo[3,4-b]pyridin-5-yl)phenyl]-N-[6-methoxy-5-(trifluoromethyl)-3-pyridyl]acetamide] | 0.0001 to 10 | 0.0001 to 10
Cn1cc(Nc2ncc(-c3ccc(CC(=O)Nc4cncc(C(F)(F)F)c4)cc3F)cn2)cn1 [Compound P-0205, 2-[3-fluoro-4-[2-[(1-methylpyrazol-4-yl)amino]pyrimidin-5-yl]phenyl]-N-[5-(trifluoromethyl)-3-pyridyl]acetamide] | 0.0001 to 10 | 0.0001 to 10
COc1cc(-c2cc3cc(-c4ccc(CC(=O)Nc5cncc(C(F)(F)F)c5)cc4F)cnc3[nH]2)ccn1 [Compound P-0200, 2-(3-fluoro-4-(2-(2-methoxypyridin-4-yl)-1H-pyrrolo[2,3-b]pyridin-5-yl)phenyl)-N-(5-(trifluoromethyl)pyridin-3-yl)acetamide] | 0.0001 to 10 | 0.0001 to 10
O=C(Cc1ccc(-c2cnc(Nc3cnn(C4CC4)c3)nc2)cc1)Nc1ccc(C(F)(F)F)cn1 [Compound P-0236, 2-[4-[2-[(1-cyclopropylpyrazol-4-yl)amino]pyrimidin-5-yl]phenyl]-N-[5-(trifluoromethyl)-2-pyridyl]acetamide] | 0.0001 to 10 | 0.0001 to 10
CCOc1n[nH]c2ncc(-c3ccc(CC(=O)Nc4cnc(OC)c(C(F)(F)F)c4)cc3F)cc12 [Compound P-0202, 2-[4-(3-ethoxy-1H-pyrazolo[3,4-b]pyridin-5-yl)-3-fluoro-phenyl]-N-[6-methoxy-5-(trifluoromethyl)-3-pyridyl]acetamide] | 0.0001 to 10 | 0.0001 to 10
